# Test results from paper PMC8472154 (Molecules, 2021).
# Columns and labels:
# Assay in all cases: Biofilm formation inhibition (crystal violet)
# Settings in all cases: EO at 2.5, 5 and 10 μL/mL; chlorohexidine 0.2% v/v; 24 h; versus control culture; Figure 5
# MRSA 15 biofilm = format: cell-based, Staphylococcus aureus
# Procedure: (§1) The Gram negative bacterium Escherichia coli DSM 1077, and the Gram positive Staphylococcus aureus ATCC 6538 and the methicillin-resistant S. aureus 15 (MRSA 15) were used in the present study. The bacterial strains were recovered from −80 °C in the culture medium Brain Heart Infusion (BHI, Oxoid, Basingstock, UK), when required agar (VWR, Radnor, Philadelphia, PA, USA) at 1.5% w/v.
# (§2) The inhibition of biofilm formation was done using the crystal violet assay. Briefly, 150 µL of an overnight culture prepared as previously mentioned was centrifuged for 10 min at 4 °C. For the preparation of the bacterial suspension, 150 µL of BHI medium supplemented with EOs at the 2.5 µL/mL, 5 µL/mL and 10 µL/mL, chlorhexidine 0.2% (v/v), n-propanol (20%), was added to the centrifuged bacterial culture. Each well containing 180 µL of BHI supplemented with EOs at the appropriate concentration was inoculated with 20 µL of the previous bacterial suspension. The cultures with no EO and in the presence of chlorohexidine (0.2 %, v/v), were used as control. The culture was left to adhere and form a biofilm for 24 h. After this incubation time, non-adherent cells were eliminated and the wells were washed twice with PBS; then, the microplate was left to dry for 15–30 min. […] The absorbance was measured at 595 nm after 15–20 min incubation.
# [1] = test system: S. aureus ATCC 6538 biofilm; format: cell-based, Staphylococcus aureus
# Procedure: as §1, §2
# E. coli DSM 1077 biofilm = format: cell-based, Escherichia coli
# Procedure: as §1, §2
smiles,measurement,setting,value
[H]/N=C(\N/C(=N/[H])NCCCCCCNC(=N)NC(=N)Nc1ccc(Cl)cc1)Nc1ccc(Cl)cc1 [chlorohexidine],biofilm formation of MRSA 15,MRSA 15 biofilm,reduced biofilm formation
same,biofilm formation of S. aureus ATCC 6538,[1],induced the biofilm formation
same,biofilm formation of E. coli DSM 1077,E. coli DSM 1077 biofilm,reduced biofilm formation
